Data reported in patent US20090227533A1, “miR-34 Regulated Genes and Pathways as Targets for Therapeutic Intervention” (priority 2007, published 2009).

Columns and labels:
Type in all cases: cell-based, human
[1] = test system: H460 lung cancer cells; test: Alamar Blue proliferation assay with pair-wise miRNA combinations
Description: miRNAs function in multiple pathways controlling multiple cellular processes. Cancer cells frequently show aberrations in several different pathways, which determine their oncogenic properties. […] The inventors assessed the efficacy of pair-wise miRNA combinations, administering hsa-miR-34a concurrently with either hsa-miR-124a, hsa-miR-126, hsa-miR-147, hsa-let-7b, hsa-let-7c or hsa-let-7g (Pre-miR™ miRNA, Ambion cat. no. AM17100). H460 lung cancer cells were transiently reverse-transfected in triplicate with each miRNA at a final concentration of 300 pM, resulting in 600 pM of total oligonucleotide. For negative controls, 600 pM of Pre-miR™ microRNA Precursor Molecule-Negative Control #2 (Ambion cat. no. AM17111) were used. To correlate the effect of various combinations with the effect of the sole miRNA, each miRNA at 300 pM was also combined with 300 pM negative control miRNA. Reverse transfection was carried out using the following parameters: 7,000 cells per 96 well, 0.15 μl Lipofectamine™ 2000 (Invitrogen) in 20 μl OptiMEM (Invitrogen), 100 μl total transfection volume. […] Cells were harvested 72 hours after transfection and subjected to Alamar Blue assays (Invitrogen). Percent proliferation values from the Alamar Blue assays were normalized to those obtained from cells treated with 600 pM negative control miRNA. Data are expressed as % proliferation relative to negative control miRNA-treated cells (Table 8, FIG. 3).
Additive activity of pair-wise combinations (e.g., hsa-miR-34a plus hsa-miR-147) is defined as an activity that is greater than the sole activity of each miRNA (e.g., the activity of hsa-miR-34a plus hsa-miR-147 is greater than that observed for hsa-miR-34a plus NC and the activity of hsa-miR-34a plus hsa-miR-147 is greater than that observed for hsa-miR-147 plus NC). Synergistic activity of pair-wise combinations is defined as an activity that is greater than the sum of the sole activity of each miRNA (e.g., the activity of hsa-miR-34a plus hsa-let-7g is greater than that observed for the sum of the activity of hsa-miR-34a plus NC and the activity of hsa-let-7g plus NC). […] The combinatorial use of miRNAs represents a potentially useful therapy for cancer and other diseases.

[2] = test system: Du145 cells; test: Alamar Blue proliferation assay, prostate cancer cells; details: 30 nM, normalized to negative control miRNA (100% proliferation)
Description: (§1) The inventors assessed the therapeutic effect of hsa-miR-34a for prostate cancer by using four individual human prostate cancer cell lines. To measure cellular proliferation of prostate cancer cells, the following prostate cancer cell lines were used: PPC-1, derived from a bone metastasis; Du145, derived from a brain metastasis; RWPE2, derived from prostate cells immortalized by human papillomavirus 18 and transformed by the K-RAS oncogene; and LNCaP, derived from a lymph node metastasis (Bello et al., 1997; Pretlow et al., 1993; Stone et al., 1978; Brothman et al., 1991; Horoszewicz et al., 1980). PPC-1 and Du145 cells lack expression of the prostate-specific antigen (PSA) and are independent of androgen receptor (AR) signaling. In contrast, RWPE2 and LNCaP cells test positive for PSA and AR. Cells were transfected with synthetic hsa-miR-34a (Pre-miR™-hsa-miR-34a, Ambion cat. no. AM17100) or negative control miRNA (NC; Pre-miR™ microRNA Precursor Molecule-Negative Control #2; Ambion cat. no. AM17111) in a 96-well format using a lipid-based transfection reagent. Lipid-based reverse transfections were carried out in triplicate according to a published protocol (Ovcharenko et al., 2005) and the following parameters: cells (6,000-7,000 per 96 well), 0.1-0.2 μl Lipofectamine™ 2000 (cat. no. 11668-019, Invitrogen Corp., Carlsbad, Calif., USA) in 20 μl OptiMEM (Invitrogen), 30 nM final concentration of miRNA in 100 μl. Proliferation was assessed 4-7 days post-transfection using Alamar Blue™ (Invitrogen) following the manufacturer's instructions. As a control for inhibition of cellular proliferation, siRNA against the motor protein kinesin 11, also known as Eg5, was used. Eg5 is essential for cellular survival of most eukaryotic cells and a lack thereof leads to reduced cell proliferation and cell death (Weil et al., 2002). siEg5 was used in lipid-based transfection following the same experimental parameters that apply to miRNA. Fluorescent light units (FLU) were measured after 3 hours, normalized to the control, and plotted as percent change in proliferation. Percent proliferation of hsa-miR-34a treated cells relative to cells treated with negative control miRNA (100%) is shown in Table 9 and in FIG. 5.

[3] = test system: LNCaP cells; test: as above; details: 30 nM, normalized to negative control miRNA (100% proliferation)
Description: as §1

[4] = test system: PPC-1 cells; test: as above; details: 30 nM, normalized to negative control miRNA (100% proliferation)
Description: as §1

[5] = test system: RWPE2 cells; test: as above; details: 30 nM, normalized to negative control miRNA (100% proliferation)
Description: as §1

“hsa-miR-34a: synthetic miRNA; mature sequence UGGCAGUGUCUUAGCUGGUUGUU (MIMAT0000255; SEQ ID NO:1) (synthetic miRNA, chemistry not given here)” was tested, and the reduction of proliferation ([1]; 300 pM hsa-miR-34a plus 300 pM negative control miRNA) was 0.42%, the “% proliferation” value ([1]; each miRNA 300 pM (600 pM total), 72 h, normalized to 600 pM negative control miRNA) was 99.58% and the “% proliferation” value [2] was 81.26%. The “% proliferation” value [3] was 49.40%, the “% proliferation” value [4] was 24.65% and the “% proliferation” value [5] was 95.96%.
